Source: ChEMBL document CHEMBL1143516, “Mercaptoamide-based non-hydroxamic acid type histone deacetylase inhibitors” (Bioorg Med Chem Lett, 2005)

The compounds below were run against Histone deacetylase (assay: In vitro inhibitory concentration against Histone deacetylase; Control value 0.06 uM).
Type: protein assay, Homo sapiens

Row | Structure (SMILES) | IC50 [µM]
1 | O=C(CS)NCCCCCC(=O)Nc1cnc2ccccc2c1 | 1.1
2 | O=C(CS)NCCC(=O)Nc1cnc2ccccc2c1 | 39.5
3 | O=C(CS)NCCCC(=O)Nc1cnc2ccccc2c1 | 0.66
4 | O=C(CCCCCC[N-]CC[S-])Nc1ccccc1.[Zn+2] | > 100
5 | O=C(CS)NCCCCC(=O)Nc1cnc2ccccc2c1 | 2.8

Other lines, results leading:

Row | IC50 [µM] | Structure (SMILES)
6 | 3.1 | O=C(CCCC(=O)Nc1ccccc1)NCCS
7 | 12.5 | O=C(CCC(=O)Nc1ccccc1)NCCS
8 | 1.5 | O=C(CCCCC(=O)Nc1ccccc1)NCCS
9 | 2.5 | O=C(CCCCCC(=O)Nc1ccccc1)NCCS
10 | 70 | O=C(CC(=O)Nc1ccccc1)NCCS
11 | 2.8 | O=C(NCCS)C(=O)Nc1ccccc1
12 | 2.35 | O=C(CCCCCCC(=O)Nc1ccccc1)NCCS
13 | 10.2 | O=C(CCCCCCCC(=O)Nc1ccccc1)NCCS
